Patent publication US20170231929A1, “METHOD FOR ENHANCING IMMUNE CELL FUNCTION AND METHOD FOR ASSESSING IMMUNE CELL MULTIFUNCTIONALITY” (NATIONAL UNIVERSITY CORPORATION OKAYAMA UNIVERSITY, priority 2014, published 2017)

System: CD8^+T cells
Assay: Multifunctionality of CD8^+T cells of primary lung cancer patients (stage I) after metformin treatment of PBMC (flow cytometer)
Type: cell-based, human
Conditions: for Decrease, IFNγ 1-cytokine-producing cell / Decrease, IFNγ/IL-2 2-cytokine-producing cell / Decrease, IFNγ/TNFα 2-cytokine-producing cell / Decrease, IFNγ/TNFα/IL2 3-cytokine-producing cell / Increase, IFNγ 1-cytokine-producing cell / Increase, IFNγ/IL-2 2-cytokine-producing cell / Increase, IFNγ/TNFα 2-cytokine-producing cell / Increase, IFNγ/TNFα/IL2 3-cytokine-producing cell / No Change, IFNγ 1-cytokine-producing cell / No Change, IFNγ/IL-2 2-cytokine-producing cell / No Change, IFNγ/TNFα 2-cytokine-producing cell / No Change, IFNγ/TNFα/IL2 3-cytokine-producing cell: Cancer Patients (stage I)
Description: 1. Peripheral blood was obtained from a test subject, and PBMC was separated by a density-gradient centrifugation using a lymphocyte-separating reagent Ficoll-Paque® (GE Healthcare). 3 mL of Ficoll-Paque® was dispensed in a 15-mL tube. 8 mL of the peripheral blood was gently placed on the reagent. At this time, care should be taken not to mix Ficoll-Paque® with the peripheral blood. Centrifugation was performed at 400 g for 30 minutes, thereby separating PBMC. 2. The separated PBMC was preserved in a −150° C. freezer or liquid nitrogen using Bambang Car cell preservation liquid by adjusting the cell number to 2.0×10^6 cell/tube. 3. In the test, the thawed PBMC was cultured for 1 to 10 hours in the presence or absence of […]. The culture was performed using a 24-well plate, and the cell number was adjusted to about 5.0×10^5 cell/well. 4. The cells were collected after 1 to 10 hours, washed with medium, and cultured in the presence of a cell activation reagent (potent nanomolar activator of protein kinase C (PMA, 50 ng/mL), ionomycin (1 μM)) for 6 hours, thereby non-specifically stimulating T cells. At this time, BD Gorgi Stop™ was added to keep the produced cytokines inside the cells. 5. The cells were isolated and washed twice with a cell-staining buffer. First, staining of CD8, PD-1, Tim-3, which are molecules expressed on the T cell surface, was performed. In the staining, a staining buffer was added in an amount of 50 μL per sample. The culture was performed at 4° C. for 30 minutes. 6. The cells were collected and washed twice with a cell-staining buffer. 500 μL of BD Cytofix/Cytoperm was added and cultured at 4° C. for 30 minutes. 7. The cells were collected and washed twice with BD Perm/Wash™. Staining of cytokines IL-2, TNFα, and IFNγ was performed. In the staining, BD Perm/Wash™ was added in an amount of 50 μL per sample. The culture was performed at 4° C. for 30 minutes. 8. The cells were collected and washed twice with BD Perm/Wash™, and 200 μL of BD Perm/Wash™ was added. 9. Analysis was performed using a FACSCanto™ II flow cytometer (Becton, Dickinson and Company).
Among the PBMC treated with PMA/ionomycin in the method shown in (2) above, first, a gate was applied to CD8^+T cells using a FACSCanto™ II flow cytometer (Becton, Dickinson and Company), and then […] were removed by FSC-A and FSC-H. Using parameters FSC-A and SSC-A, a gate was applied to a lymphocyte group, thereby analyzing expression of PD-1 and Tim-3. Further, intracellular cytokines IFNγ, TNFα, and IL-2 were stained, and multifunctionality of CD8^+T cells contained in the PBMC was analyzed (FIG. 1).
Each PBMC obtained from 31 primary lung cancer patients (stage I) was cultured for an hour in the same manner as in (4) in the presence or absence of metformin. After metformin was removed, each resulting PBMC was analyzed. In a representative example, the CD8^+T cells untreated with metformin were determined to be 0.92%, and the CD8^+T cells treated with metformin were determined to be 1.44% (FIG. 3). Accordingly, it was judged that, in comparison with healthy subjects, multifunctionality of CD8^+T cells was increased by a metformin treatment in many cancer patients.
Among the cancer patients treated as above, the ratios of CD8^+T cells producing three kinds of cytokines (IFNγ/TNFα/IL-2), CD8^+T cells producing two kinds of cytokines (IFNγ/TNFα or IFNγ/IL-2), CD8^+T cells producing one kind of cytokine (IFNγ) with respect to the entire CD8^+T cells were calculated according to the same analysis as in (4), and shown in Table 2. The calculation results were compared between the metformin-untreated group (control) and the metformin-treated group (metformin).
This Example analyzed test results of recovery of multifunctionality of CD8^+T cells by metformin in 10 healthy subjects and 31 cancer patients (stage I) based on the results obtained by the method in Example 1. […]

[1] = total CD8^+T cells, cancer patients (stage I)

Which results are given for `CN(C)C(=N)N=C(N)N` [metformin]?
Decrease, IFNγ 1-cytokine-producing cell (PD-1+, Tim-3+, patients/total): 10/31; Decrease, IFNγ/IL-2 2-cytokine-producing cell (PD-1+, Tim-3+, patients/total): 8/31; Decrease, IFNγ/TNFα 2-cytokine-producing cell (PD-1+, Tim-3+, patients/total): 9/31; Decrease, IFNγ/TNFα/IL2 3-cytokine-producing cell (PD-1+, Tim-3+, patients/total): 7/31; Increase, IFNγ 1-cytokine-producing cell (PD-1+, Tim-3+, patients/total): 19/31; Increase, IFNγ/IL-2 2-cytokine-producing cell (PD-1+, Tim-3+, patients/total): 9/31; Increase, IFNγ/TNFα 2-cytokine-producing cell (PD-1+, Tim-3+, patients/total): 11/31; Increase, IFNγ/TNFα/IL2 3-cytokine-producing cell (PD-1+, Tim-3+, patients/total): 11/31; No Change, IFNγ 1-cytokine-producing cell (PD-1+, Tim-3+, patients/total): 2/31; No Change, IFNγ/IL-2 2-cytokine-producing cell (PD-1+, Tim-3+, patients/total): 14/31; No Change, IFNγ/TNFα 2-cytokine-producing cell (PD-1+, Tim-3+, patients/total): 11/31; No Change, IFNγ/TNFα/IL2 3-cytokine-producing cell (PD-1+, Tim-3+, patients/total): 13/31; Decrease, IFNγ 1-cytokine-producing cell (PD-1+, Tim-3−, patients/total): 10/31; Decrease, IFNγ/IL-2 2-cytokine-producing cell (PD-1+, Tim-3−, patients/total): 12/31; Decrease, IFNγ/TNFα 2-cytokine-producing cell (PD-1+, Tim-3−, patients/total): 10/31; Decrease, IFNγ/TNFα/IL2 3-cytokine-producing cell (PD-1+, Tim-3−, patients/total): 10/31; Increase, IFNγ 1-cytokine-producing cell (PD-1+, Tim-3−, patients/total): 11/31; Increase, IFNγ/IL-2 2-cytokine-producing cell (PD-1+, Tim-3−, patients/total): 12/31; Increase, IFNγ/TNFα 2-cytokine-producing cell (PD-1+, Tim-3−, patients/total): 10/31; Increase, IFNγ/TNFα/IL2 3-cytokine-producing cell (PD-1+, Tim-3−, patients/total): 14/31; No Change, IFNγ 1-cytokine-producing cell (PD-1+, Tim-3−, patients/total): 10/31; No Change, IFNγ/IL-2 2-cytokine-producing cell (PD-1+, Tim-3−, patients/total): 7/31; No Change, IFNγ/TNFα 2-cytokine-producing cell (PD-1+, Tim-3−, patients/total): 11/31; No Change, IFNγ/TNFα/IL2 3-cytokine-producing cell (PD-1+, Tim-3−, patients/total): 7/31; Decrease, IFNγ 1-cytokine-producing cell (PD-1−, Tim-3+, patients/total): 14/31; Decrease, IFNγ/IL-2 2-cytokine-producing cell (PD-1−, Tim-3+, patients/total): 9/31; Decrease, IFNγ/TNFα 2-cytokine-producing cell (PD-1−, Tim-3+, patients/total): 8/31; Decrease, IFNγ/TNFα/IL2 3-cytokine-producing cell (PD-1−, Tim-3+, patients/total): 6/31; Increase, IFNγ 1-cytokine-producing cell (PD-1−, Tim-3+, patients/total): 10/31; Increase, IFNγ/IL-2 2-cytokine-producing cell (PD-1−, Tim-3+, patients/total): 13/31; Increase, IFNγ/TNFα 2-cytokine-producing cell (PD-1−, Tim-3+, patients/total): 13/31; Increase, IFNγ/TNFα/IL2 3-cytokine-producing cell (PD-1−, Tim-3+, patients/total): 12/31; No Change, IFNγ 1-cytokine-producing cell (PD-1−, Tim-3+, patients/total): 7/31; No Change, IFNγ/IL-2 2-cytokine-producing cell (PD-1−, Tim-3+, patients/total): 9/31; No Change, IFNγ/TNFα 2-cytokine-producing cell (PD-1−, Tim-3+, patients/total): 10/31; No Change, IFNγ/TNFα/IL2 3-cytokine-producing cell (PD-1−, Tim-3+, patients/total): 13/31; Decrease, IFNγ 1-cytokine-producing cell (PD-1−, Tim-3−, patients/total): 16/31; Decrease, IFNγ/IL-2 2-cytokine-producing cell (PD-1−, Tim-3−, patients/total): 17/31; Decrease, IFNγ/TNFα 2-cytokine-producing cell (PD-1−, Tim-3−, patients/total): 14/31; Decrease, IFNγ/TNFα/IL2 3-cytokine-producing cell (PD-1−, Tim-3−, patients/total): 14/31; Increase, IFNγ 1-cytokine-producing cell (PD-1−, Tim-3−, patients/total): 9/31; Increase, IFNγ/IL-2 2-cytokine-producing cell (PD-1−, Tim-3−, patients/total): 12/31; Increase, IFNγ/TNFα 2-cytokine-producing cell (PD-1−, Tim-3−, patients/total): 13/31; Increase, IFNγ/TNFα/IL2 3-cytokine-producing cell (PD-1−, Tim-3−, patients/total): 13/31; No Change, IFNγ 1-cytokine-producing cell (PD-1−, Tim-3−, patients/total): 6/31; No Change, IFNγ/IL-2 2-cytokine-producing cell (PD-1−, Tim-3−, patients/total): 2/31; No Change, IFNγ/TNFα 2-cytokine-producing cell (PD-1−, Tim-3−, patients/total): 4/31; No Change, IFNγ/TNFα/IL2 3-cytokine-producing cell (PD-1−, Tim-3−, patients/total): 4/31; Decrease, IFNγ 1-cytokine-producing cell (Total CD8T, patients/total): 13/31; Decrease, IFNγ/IL-2 2-cytokine-producing cell (Total CD8T, patients/total): 15/31; Decrease, IFNγ/TNFα 2-cytokine-producing cell (Total CD8T, patients/total): 12/31; Decrease, IFNγ/TNFα/IL2 3-cytokine-producing cell (Total CD8T, patients/total): 12/31; Increase, IFNγ 1-cytokine-producing cell (Total CD8T, patients/total): 5/31; Increase, IFNγ/IL-2 2-cytokine-producing cell (Total CD8T, patients/total): 13/31; Increase, IFNγ/TNFα 2-cytokine-producing cell (Total CD8T, patients/total): 15/31; Increase, IFNγ/TNFα/IL2 3-cytokine-producing cell (Total CD8T, patients/total): 14/31; No Change, IFNγ 1-cytokine-producing cell (Total CD8T, patients/total): 13/31; No Change, IFNγ/IL-2 2-cytokine-producing cell (Total CD8T, patients/total): 3/31; No Change, IFNγ/TNFα 2-cytokine-producing cell (Total CD8T, patients/total): 4/31; No Change, IFNγ/TNFα/IL2 3-cytokine-producing cell (Total CD8T, patients/total): 5/31; Increase + No Change, IFNγ/TNFα/IL2, share of patients (Total CD8T, Patients (stage I)): 61.3%; Increase + No Change, IFNγ/TNFα/IL2 (Total CD8T, Patients (stage I), patients/total): 19/31; multifunctionality of CD8^+T cells by a metformin treatment (many cancer patients, in comparison with healthy subjects): increased; CD8^+T cells capable of simultaneously producing IFNγ, TNFα and IL-2, treated with metformin (primary lung cancer patients (stage I), representative example, FIG. 3, untreated with metformin 0.92%): 1.44%; decrease in multifunctionality (three kinds of cytokines), share of patients [1]: 38.7%; increase in multifunctionality (three kinds of cytokines), share of patients [1]: 45.2%
